# Calls of active or inactive are those of the source. The rule behind the calls is not given here. Positions of bridges follow the written chain, without caps; N, C: chain ends. Non-standard residues stand in square brackets, D forms with d. Residues, ends and D or L forms follow the SMILES beside them. *: point of attachment. X1 = CC[C@H](C)CCCCC(=O)*; Orn = NCCC[C@H](N)C(=O)O; Dab = NCC[C@H](N)C(=O)O
# Experiments:
# Pseudomonas aeruginosa [1] = experiment: Antimicrobial activity against Pseudomonas aeruginosa PAO1 incubated for 16 to 20 hrs in 12.5 % muller hinton medium by broth microdilution method; format: functional; conditions: time 16-20 hrs
# Pseudomonas aeruginosa [2] = experiment: Antibacterial activity against multidrug-resistant Pseudomonas aeruginosa PA14 4.18 harboring pmrB mutant incubated for 16 to 20 hrs in full muller hinton medium by broth microdilution method; format: functional; conditions: time 16-20 hrs
# Pseudomonas aeruginosa [3] = experiment: Antibacterial activity against multidrug-resistant Pseudomonas aeruginosa clinical isolate ZEM9A incubated for 16 to 20 hrs in 12.5 % muller hinton medium by broth microdilution method; format: functional; conditions: time 16-20 hrs
# Pseudomonas aeruginosa [4] = experiment: Antibacterial activity against multidrug-resistant Pseudomonas aeruginosa clinical isolate ZEM-1A incubated for 16 to 20 hrs in full muller hinton medium by broth microdilution method; format: functional; conditions: time 16-20 hrs
# Escherichia coli [5] = experiment: Antimicrobial activity against Escherichia coli W3110 incubated for 16 to 20 hrs in 12.5 % muller hinton medium by broth microdilution method; format: functional; conditions: time 16-20 hrs
# Klebsiella pneumoniae [6] = experiment: Antibacterial activity against multidrug-resistant Klebsiella pneumoniae clinical isolate OXA-48 incubated for 16 to 20 hrs in 12.5 % muller hinton medium by broth microdilution method; format: functional; conditions: time 16-20 hrs
# Staphylococcus aureus [7] = experiment: Antimicrobial activity against methicillin-resistant Staphylococcus aureus COL incubated for 16 to 20 hrs in 12.5 % muller hinton medium by broth microdilution method; format: functional; conditions: time 16-20 hrs
# Pseudomonas aeruginosa [8] = experiment: Antibacterial activity against multidrug-resistant Pseudomonas aeruginosa clinical isolate ZEM9A incubated for 16 to 20 hrs in full muller hinton medium by broth microdilution method; format: functional; conditions: time 16-20 hrs
# Klebsiella pneumoniae [9] = experiment: Antimicrobial activity against Klebsiella pneumoniae NCTC 418 incubated for 16 to 20 hrs in full muller hinton medium by broth microdilution method; format: functional; conditions: time 16-20 hrs
# Acinetobacter baumannii [10] = experiment: Antimicrobial activity against Acinetobacter baumannii ATCC 19606 incubated for 16 to 20 hrs in 12.5 % muller hinton medium by broth microdilution method; format: functional; conditions: time 16-20 hrs
# Klebsiella pneumoniae [11] = experiment: Antibacterial activity against multidrug-resistant Klebsiella pneumoniae clinical isolate OXA-48 incubated for 16 to 20 hrs in full muller hinton medium by broth microdilution method; format: functional; conditions: time 16-20 hrs
# Pseudomonas aeruginosa [12] = experiment: Antibacterial activity against multidrug-resistant Pseudomonas aeruginosa PA14 4.18 harboring pmrB mutant incubated for 16 to 20 hrs in 12.5 % muller hinton medium by broth microdilution method; format: functional; conditions: time 16-20 hrs
# Pseudomonas aeruginosa [13] = experiment: Antibacterial activity against multidrug-resistant Pseudomonas aeruginosa PA14 2P4 harboring pmrB mutant incubated for 16 to 20 hrs in 12.5 % muller hinton medium by broth microdilution method; format: functional; conditions: time 16-20 hrs
# Klebsiella pneumoniae [14] = experiment: Antimicrobial activity against Klebsiella pneumoniae NCTC 418 incubated for 16 to 20 hrs in 12.5 % muller hinton medium by broth microdilution method; format: functional; conditions: time 16-20 hrs
# Staphylococcus aureus [15] = experiment: Antimicrobial activity against methicillin-resistant Staphylococcus aureus COL incubated for 16 to 20 hrs in full muller hinton medium by broth microdilution method; format: functional; conditions: time 16-20 hrs
# Escherichia coli [16] = experiment: Antimicrobial activity against Escherichia coli W3110 incubated for 16 to 20 hrs in full muller hinton medium by broth microdilution method; format: functional; conditions: time 16-20 hrs
# Pseudomonas aeruginosa [17] = experiment: Antibacterial activity against multidrug-resistant Pseudomonas aeruginosa PA14 4.13 harboring phoQ mutant incubated for 16 to 20 hrs in full muller hinton medium by broth microdilution method; format: functional; conditions: time 16-20 hrs
# Pseudomonas aeruginosa [18] = experiment: Antibacterial activity against multidrug-resistant Pseudomonas aeruginosa PA14 2P4 harboring pmrB mutant incubated for 16 to 20 hrs in full muller hinton medium by broth microdilution method; format: functional; conditions: time 16-20 hrs
# Pseudomonas aeruginosa [19] = experiment: Antibacterial activity against multidrug-resistant Pseudomonas aeruginosa clinical isolate ZEM-1A incubated for 16 to 20 hrs in 12.5 % muller hinton medium by broth microdilution method; format: functional; conditions: time 16-20 hrs
# Pseudomonas aeruginosa [20] = experiment: Antibacterial activity against multidrug-resistant Pseudomonas aeruginosa PA14 4.13 harboring phoQ mutant incubated for 16 to 20 hrs in 12.5 % muller hinton medium by broth microdilution method; format: functional; conditions: time 16-20 hrs
# Pseudomonas aeruginosa [21] = experiment: Antimicrobial activity against Pseudomonas aeruginosa PAO1 incubated for 16 to 20 hrs in full muller hinton medium by broth microdilution method; format: functional; conditions: time 16-20 hrs
# Enterobacter cloacae [22] = experiment: Antibacterial activity against multidrug-resistant Enterobacter cloacae incubated for 16 to 20 hrs in 12.5 % muller hinton medium by broth microdilution method; format: functional; conditions: time 16-20 hrs
# Acinetobacter baumannii [23] = experiment: Antimicrobial activity against Acinetobacter baumannii ATCC 19606 incubated for 16 to 20 hrs in full muller hinton medium by broth microdilution method; format: functional; conditions: time 16-20 hrs
# Enterobacter cloacae [24] = experiment: Antibacterial activity against multidrug-resistant Enterobacter cloacae incubated for 16 to 20 hrs in full muller hinton medium by broth microdilution method; format: functional; conditions: time 16-20 hrs
# Pseudomonas aeruginosa [25] = experiment: Antibacterial activity against multidrug-resistant Pseudomonas aeruginosa PA14 incubated for 16 to 20 hrs in 12.5 % muller hinton medium by broth microdilution method; format: functional; conditions: time 16-20 hrs
# Pseudomonas aeruginosa [26] = experiment: Antibacterial activity against multidrug-resistant Pseudomonas aeruginosa PA14 incubated for 16 to 20 hrs in full muller hinton medium by broth microdilution method; format: functional; conditions: time 16-20 hrs
# [27] = Hemolytic activity in human RBC incubated for 4 hrs; format: toxicity, cell-based; conditions: erythrocyte
# rRNA = experiment: Binding affinity to [gamma32 P-ATP] labeled Escherichia coli MG1655 23S ribosomal RNA (5-CCCTTGGGACCTACTTC-3') at U2506 position assessed as increase in band intensity at 1 uM incubated for 2.5 hrs in full muller hinton medium by CMCT based gel electrophoresis; format: nucleic-acid assay
# Bacteria = experiment: Binding affinity to his-tagged DnaK (unknown origin) expressed in Escherichia coli BL21 (DE3) in dilute muller hinton medium by microscale thermophoresis analysis
# Lipid bilayer [28] = experiment: Induction of membrane disruption in egg yolk phosphatidyl choline at 10 ug/ml by measuring vesicle leakage; conditions: dose 10.0 µg/ml
# Lipid bilayer [29] = experiment: Induction of membrane disruption in egg yolk phosphatidyl glycerol at 10 ug/ml by measuring vesicle leakage; conditions: dose 10.0 µg/ml
Compound,MIC (Pseudomonas aeruginosa [1]) [µg/mL],MIC (Pseudomonas aeruginosa [2]) [µg/mL],MIC (Pseudomonas aeruginosa [3]) [µg/mL],MIC (Pseudomonas aeruginosa [4]) [µg/mL],MIC (Escherichia coli [5]) [µg/mL],MIC (Klebsiella pneumoniae [6]) [µg/mL],MIC (Staphylococcus aureus [7]) [µg/mL],MIC (Pseudomonas aeruginosa [8]) [µg/mL],MIC (Klebsiella pneumoniae [9]) [µg/mL],MIC (Klebsiella pneumoniae [11]) [µg/mL],MIC (Klebsiella pneumoniae [14]) [µg/mL],MIC (Staphylococcus aureus [15]) [µg/mL],MIC (Pseudomonas aeruginosa [17]) [µg/mL],MIC (Pseudomonas aeruginosa [18]) [µg/mL],MIC (Pseudomonas aeruginosa [19]) [µg/mL],MIC (Pseudomonas aeruginosa [21]) [µg/mL],MIC (Acinetobacter baumannii [23]) [µg/mL],MIC (Enterobacter cloacae [24]) [µg/mL],MIC (Pseudomonas aeruginosa [26]) [µg/mL],MHC [27] [µg/mL],other results
CC(C)CCCCC(=O)N[C@@H](CCN)C(=O)N[C@H](C(=O)N[C@@H](CCN)C(=O)N[C@H]1CCNC(=O)[C@H]([C@@H](C)O)NC(=O)[C@H](CCN)NC(=O)[C@H](CCN)NC(=O)[C@H](CC(C)C)NC(=O)[C@@H](Cc2ccccc2)NC(=O)[C@H](CCN)NC1=O)[C@@H](C)O.CC[C@H](C)CCCCC(=O)N[C@@H](CCN)C(=O)N[C@H](C(=O)N[C@@H](CCN)C(=O)N[C@H]1CCNC(=O)[C@H]([C@@H](C)O)NC(=O)[C@H](CCN)NC(=O)[C@H](CCN)NC(=O)[C@H](CC(C)C)NC(=O)[C@@H](Cc2ccccc2)NC(=O)[C@H](CCN)NC1=O)[C@@H](C)O (X1-[Dab]T[Dab][Dab][Dab][dF]L[Dab][Dab]T; lactam 4-C),1,2,2,16,0.2,1,16,> 64,0.5,1,1,> 16,2,4,8,0.5,0.25,2,> 0.5,,MIC (Acinetobacter baumannii [10]): 0.5 µg/mL; MIC (Pseudomonas aeruginosa [12]): 1 µg/mL; MIC (Pseudomonas aeruginosa [13]): 1 µg/mL; MIC (Escherichia coli [16]): 0.25 µg/mL; MIC (Pseudomonas aeruginosa [20]): 2 µg/mL; MIC (Enterobacter cloacae [22]): 1 µg/mL; MIC (Pseudomonas aeruginosa [25]): 1 µg/mL
CC[C@H](C)[C@H](NC(=O)[C@H](CCCN)NC(=O)[C@H](CCCNC(=N)N)NC(=O)[C@@H]1CCCN1C(=O)[C@@H]1CCCN1C(=O)[C@H](CCCNC(=N)N)NC(=O)[C@@H]1CCCN1C(=O)[C@H](CCCNC(=N)N)NC(=O)[C@@H]1CCCN1C(=O)[C@H](CC(C)C)NC(=O)[C@H](Cc1ccc(O)cc1)NC(=O)[C@@H]1CCCN1C(=O)[C@@H]1CCCN1C(=O)[C@H](CCCCN)NC(=O)[C@H](CC(=O)O)NC(=O)[C@@H](N)C(C)C)C(=O)N[C@@H](Cc1ccc(O)cc1)C(=O)N[C@@H](CC(N)=O)C(=O)N[C@@H](CCCN)C(N)=O (H-VDKPPYLPRPRPPR[Orn]IYN[Orn]-NH2),16,> 32,32,> 64,2,2,> 64,> 64,8,64,4,> 64,> 32,> 64,16,> 64,64,32,> 32,> 1000,MIC (Acinetobacter baumannii [10]): 8 µg/mL; MIC (Pseudomonas aeruginosa [12]): 32 µg/mL; MIC (Pseudomonas aeruginosa [13]): 16 µg/mL; MIC (Escherichia coli [16]): 8 µg/mL; MIC (Pseudomonas aeruginosa [20]): 32 µg/mL; MIC (Enterobacter cloacae [22]): 1 µg/mL; MIC (Pseudomonas aeruginosa [25]): 32 µg/mL
CCC(C)C(NC(=O)C(CCCNC(=N)N)NC(=O)C(CCCNC(=N)N)NC(=O)C1CCCN1C(=O)C1CCCN1C(=O)C(CCCNC(=N)N)NC(=O)C1CCCN1C(=O)C(CCCNC(=N)N)NC(=O)C1CCCN1C(=O)C(CC(C)C)NC(=O)C(Cc1ccc(O)cc1)NC(=O)C1CCCN1C(=O)C1CCCN1C(=O)C(CCCCN)NC(=O)C(CC(=O)O)NC(=O)C(N)C(C)C)C(=O)NC(Cc1ccc(O)cc1)C(=O)NC(CC(N)=O)C(=O)NC(CCCNC(=N)N)C(N)=O (centres undefined) (H-VDKPPYLPRPRPPRRIYNR-NH2; configuration not given here),,> 64,,> 64,,> 64,> 64,> 64,> 64,> 64,> 16,> 64,> 64,> 64,,> 64,,> 64,> 64,> 1000,Activity (rRNA): inactive; Activity (Bacteria): inactive; Activity (Lipid bilayer [28]): Active; Activity (Lipid bilayer [29]): Active
CC[C@@H](C)[C@@H](NC(=O)[C@@H](CCCNC(=N)N)NC(=O)[C@@H](CCCNC(=N)N)NC(=O)[C@H]1CCCN1C(=O)[C@H]1CCCN1C(=O)[C@@H](CCCNC(=N)N)NC(=O)[C@H]1CCCN1C(=O)[C@@H](CCCNC(=N)N)NC(=O)[C@H]1CCCN1C(=O)[C@@H](CC(C)C)NC(=O)[C@@H](Cc1ccc(O)cc1)NC(=O)[C@H]1CCCN1C(=O)[C@H]1CCCN1C(=O)[C@@H](CCCCN)NC(=O)[C@@H](CC(=O)O)NC(=O)[C@H](N)C(C)C)C(=O)N[C@H](Cc1ccc(O)cc1)C(=O)N[C@H](CC(N)=O)C(=O)N[C@H](CCCNC(=N)N)C(N)=O (H-[dV][dD][dK][dP][dP][dY][dL][dP][dR][dP][dR][dP][dP][dR][dR][dI][dY][dN][dR]-NH2),,> 64,,> 64,,,,> 64,> 64,> 64,> 16,> 64,> 64,> 64,> 64,> 64,> 64,> 64,> 64,> 1000,Activity (rRNA): inactive; Activity (Bacteria): inactive

# From ChEMBL document CHEMBL6083262, “Stereorandomized Oncocins with Preserved Ribosome Binding and Antibacterial Activity” (J Med Chem, 2024)
